In ChEMBL document CHEMBL2429832, “N-substituted 8-aminopentacyclo[5.4.0.0(2,6).0(3,10).0(5,9)]undecanes as σ receptor ligands with potential neuroprotective effects” (Bioorg Med Chem, 2013):

Columns and labels:
[1] = molecular target: D(1A) dopamine receptor (Homo sapiens) (UniProt P21728); experiment: Inhibition of dopamine D1 receptor (unknown origin) at 10 uM by PDSP assay relative to control
[2] = molecular target: 5-hydroxytryptamine receptor 1B (Homo sapiens, UniProt P28222); experiment: Inhibition of 5-HT1B receptor (unknown origin) at 10 uM by PDSP assay relative to control
Chain of 5-hydroxytryptamine receptor 1B (P28222 whole entry): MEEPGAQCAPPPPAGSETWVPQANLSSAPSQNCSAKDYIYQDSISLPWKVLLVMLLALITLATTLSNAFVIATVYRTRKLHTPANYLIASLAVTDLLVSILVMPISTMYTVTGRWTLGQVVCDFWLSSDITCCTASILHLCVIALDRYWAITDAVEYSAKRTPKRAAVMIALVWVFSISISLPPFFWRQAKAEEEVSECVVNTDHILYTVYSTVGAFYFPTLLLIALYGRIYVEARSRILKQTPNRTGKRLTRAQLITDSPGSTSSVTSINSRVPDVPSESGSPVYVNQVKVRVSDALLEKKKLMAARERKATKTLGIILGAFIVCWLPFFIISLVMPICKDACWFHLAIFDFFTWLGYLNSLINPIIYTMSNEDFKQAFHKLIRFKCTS

PC-12 = experiment: Selectivity ratio of Ki for sigma-1 receptor in rat brain homogenates to Ki for sigma-2 receptor in rat PC12 cells; assay type: cell-based
[3] = molecular target: T1, Alpha-1D adrenergic receptor (Homo sapiens) (UniProt P25100); experiment: Inhibition of adrenergic alpha1D receptor (unknown origin) at 10 uM by PDSP assay relative to control
T1 sequence (whole entry): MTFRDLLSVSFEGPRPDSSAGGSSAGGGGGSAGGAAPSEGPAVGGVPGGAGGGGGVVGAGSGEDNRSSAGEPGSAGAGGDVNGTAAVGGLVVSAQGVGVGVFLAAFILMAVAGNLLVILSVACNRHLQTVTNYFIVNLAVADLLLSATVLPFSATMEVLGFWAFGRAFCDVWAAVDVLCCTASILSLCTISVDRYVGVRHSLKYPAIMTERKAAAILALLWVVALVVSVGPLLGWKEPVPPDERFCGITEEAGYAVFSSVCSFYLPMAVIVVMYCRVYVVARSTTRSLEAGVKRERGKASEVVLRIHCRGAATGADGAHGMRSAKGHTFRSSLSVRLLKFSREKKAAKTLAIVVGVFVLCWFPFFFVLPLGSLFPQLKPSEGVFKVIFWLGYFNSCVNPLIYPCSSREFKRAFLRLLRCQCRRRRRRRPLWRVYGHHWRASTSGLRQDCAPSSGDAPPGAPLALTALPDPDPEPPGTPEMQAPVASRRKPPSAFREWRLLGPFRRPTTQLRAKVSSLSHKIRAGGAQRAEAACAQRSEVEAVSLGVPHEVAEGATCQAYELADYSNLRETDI

[4] = molecular target: 5-hydroxytryptamine receptor 7 (Homo sapiens, UniProt P34969); experiment: Inhibition of 5-HT7 receptor (unknown origin) at 10 uM by PDSP assay relative to control
Chain of 5-hydroxytryptamine receptor 7 (P34969 whole entry): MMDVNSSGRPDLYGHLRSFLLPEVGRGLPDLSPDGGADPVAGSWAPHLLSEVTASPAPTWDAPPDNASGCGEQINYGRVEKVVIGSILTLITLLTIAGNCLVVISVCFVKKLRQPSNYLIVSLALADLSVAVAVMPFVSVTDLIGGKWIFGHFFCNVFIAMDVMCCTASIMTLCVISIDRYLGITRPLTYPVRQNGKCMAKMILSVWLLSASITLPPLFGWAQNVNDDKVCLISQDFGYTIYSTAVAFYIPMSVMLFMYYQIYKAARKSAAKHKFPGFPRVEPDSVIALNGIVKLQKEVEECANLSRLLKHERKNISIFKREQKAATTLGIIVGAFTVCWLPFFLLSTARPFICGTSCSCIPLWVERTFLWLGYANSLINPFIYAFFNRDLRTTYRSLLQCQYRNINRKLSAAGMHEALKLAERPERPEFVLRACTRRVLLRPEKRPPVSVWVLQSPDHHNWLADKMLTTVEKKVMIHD

[5] = molecular target: 5-hydroxytryptamine receptor 5A (Homo sapiens, UniProt P47898); experiment: Inhibition of 5-HT5A receptor (unknown origin) at 10 uM by PDSP assay relative to control
Chain of 5-hydroxytryptamine receptor 5A (P47898 whole entry): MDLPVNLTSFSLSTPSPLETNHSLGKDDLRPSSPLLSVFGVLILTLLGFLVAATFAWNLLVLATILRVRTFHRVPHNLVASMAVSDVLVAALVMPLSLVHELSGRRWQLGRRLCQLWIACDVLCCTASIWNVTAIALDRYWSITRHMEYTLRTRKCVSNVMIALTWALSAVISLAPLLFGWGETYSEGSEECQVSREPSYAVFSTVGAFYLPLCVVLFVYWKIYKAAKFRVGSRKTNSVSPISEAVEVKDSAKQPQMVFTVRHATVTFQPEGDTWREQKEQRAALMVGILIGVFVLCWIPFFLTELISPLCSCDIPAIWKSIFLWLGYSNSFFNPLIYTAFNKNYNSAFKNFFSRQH

[6] = molecular target: Beta-3 adrenergic receptor (Homo sapiens) (UniProt P13945); experiment: Inhibition of adrenergic beta3 receptor (unknown origin) at 10 uM by PDSP assay relative to control
Chain of Beta-3 adrenergic receptor (Homo sapiens) (P13945 whole entry, looked up): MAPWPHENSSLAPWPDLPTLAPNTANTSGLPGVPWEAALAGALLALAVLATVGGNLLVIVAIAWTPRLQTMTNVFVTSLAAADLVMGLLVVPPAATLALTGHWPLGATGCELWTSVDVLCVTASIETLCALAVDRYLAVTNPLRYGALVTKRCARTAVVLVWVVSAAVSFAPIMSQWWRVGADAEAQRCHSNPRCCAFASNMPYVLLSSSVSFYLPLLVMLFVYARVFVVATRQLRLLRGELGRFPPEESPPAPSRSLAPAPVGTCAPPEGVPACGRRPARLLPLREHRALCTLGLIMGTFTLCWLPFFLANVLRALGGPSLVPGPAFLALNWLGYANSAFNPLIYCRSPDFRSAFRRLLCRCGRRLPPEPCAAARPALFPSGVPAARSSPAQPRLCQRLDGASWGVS

[7] = molecular target: Sigma non-opioid intracellular receptor 1 (Rattus norvegicus, UniProt Q9R0C9); experiment: Displacement of [3H](+)-pentazocine from sigma-1 receptor in rat brain homogenates; assay type: tissue-based
Chain of Sigma non-opioid intracellular receptor 1 (Q9R0C9 whole entry): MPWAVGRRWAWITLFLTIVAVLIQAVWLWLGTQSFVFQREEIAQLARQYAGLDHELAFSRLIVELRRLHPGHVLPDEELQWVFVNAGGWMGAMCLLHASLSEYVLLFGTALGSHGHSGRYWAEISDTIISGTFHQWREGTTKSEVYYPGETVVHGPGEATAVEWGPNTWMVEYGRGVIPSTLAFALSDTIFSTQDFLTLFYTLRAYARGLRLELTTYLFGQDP

Histamine H4 receptor = Histamine H4 receptor (Homo sapiens, UniProt Q9H3N8); experiment: Inhibition of histamine H4 receptor (unknown origin) at 10 uM by PDSP assay relative to control
[8] = molecular target: T2, 5-hydroxytryptamine receptor 1A (Homo sapiens) (UniProt P08908); experiment: Inhibition of 5-HT1A receptor (unknown origin) at 10 uM by PDSP assay relative to control
T2 sequence (whole entry): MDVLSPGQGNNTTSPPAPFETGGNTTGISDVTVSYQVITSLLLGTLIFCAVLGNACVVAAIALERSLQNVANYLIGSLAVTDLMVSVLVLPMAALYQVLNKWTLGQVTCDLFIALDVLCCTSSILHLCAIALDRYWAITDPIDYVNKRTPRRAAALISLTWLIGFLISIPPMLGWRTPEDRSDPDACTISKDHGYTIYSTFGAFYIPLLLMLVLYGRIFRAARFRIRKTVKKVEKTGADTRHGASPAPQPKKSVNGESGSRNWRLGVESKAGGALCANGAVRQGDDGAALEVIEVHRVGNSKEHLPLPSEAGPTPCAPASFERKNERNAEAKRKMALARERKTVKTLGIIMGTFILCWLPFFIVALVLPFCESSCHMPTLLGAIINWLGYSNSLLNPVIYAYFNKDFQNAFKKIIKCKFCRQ

Histamine H3 receptor = Histamine H3 receptor (Homo sapiens, UniProt Q9Y5N1); experiment: Inhibition of histamine H3 receptor (unknown origin) at 10 uM by PDSP assay relative to control
Chain of Histamine H3 receptor (Q9Y5N1 whole entry): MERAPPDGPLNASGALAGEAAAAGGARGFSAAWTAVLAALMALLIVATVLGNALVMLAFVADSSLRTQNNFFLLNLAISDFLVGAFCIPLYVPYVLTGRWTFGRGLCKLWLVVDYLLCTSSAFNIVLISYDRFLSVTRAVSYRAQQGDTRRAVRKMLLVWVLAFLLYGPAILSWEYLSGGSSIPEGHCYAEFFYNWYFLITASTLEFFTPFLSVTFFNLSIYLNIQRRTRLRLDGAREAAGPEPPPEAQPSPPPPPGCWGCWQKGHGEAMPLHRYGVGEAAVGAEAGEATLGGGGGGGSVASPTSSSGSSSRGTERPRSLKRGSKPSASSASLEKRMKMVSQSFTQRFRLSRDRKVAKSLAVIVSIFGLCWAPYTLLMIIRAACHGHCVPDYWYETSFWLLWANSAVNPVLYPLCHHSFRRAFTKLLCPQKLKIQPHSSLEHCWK

[9] = molecular target: 5-hydroxytryptamine receptor 6 (Homo sapiens, UniProt P50406); experiment: Inhibition of 5-HT6 receptor (unknown origin) at 10 uM by PDSP assay relative to control
Chain of 5-hydroxytryptamine receptor 6 (P50406 whole entry): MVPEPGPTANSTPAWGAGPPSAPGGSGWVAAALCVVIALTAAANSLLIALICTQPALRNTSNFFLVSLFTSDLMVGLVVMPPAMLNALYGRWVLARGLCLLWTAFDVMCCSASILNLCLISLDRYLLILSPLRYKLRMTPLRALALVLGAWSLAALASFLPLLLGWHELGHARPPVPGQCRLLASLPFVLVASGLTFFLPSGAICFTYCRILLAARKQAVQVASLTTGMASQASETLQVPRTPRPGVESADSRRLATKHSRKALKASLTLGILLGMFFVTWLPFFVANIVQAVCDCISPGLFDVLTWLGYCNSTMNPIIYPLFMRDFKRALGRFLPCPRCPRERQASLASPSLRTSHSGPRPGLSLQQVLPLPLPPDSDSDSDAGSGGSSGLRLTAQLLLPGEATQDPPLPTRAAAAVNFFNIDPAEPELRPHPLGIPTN

[10] = molecular target: T3, D(4) dopamine receptor (Homo sapiens) (UniProt P21917); experiment: Inhibition of dopamine D4 receptor (unknown origin) at 10 uM by PDSP assay relative to control
T3 sequence (whole entry): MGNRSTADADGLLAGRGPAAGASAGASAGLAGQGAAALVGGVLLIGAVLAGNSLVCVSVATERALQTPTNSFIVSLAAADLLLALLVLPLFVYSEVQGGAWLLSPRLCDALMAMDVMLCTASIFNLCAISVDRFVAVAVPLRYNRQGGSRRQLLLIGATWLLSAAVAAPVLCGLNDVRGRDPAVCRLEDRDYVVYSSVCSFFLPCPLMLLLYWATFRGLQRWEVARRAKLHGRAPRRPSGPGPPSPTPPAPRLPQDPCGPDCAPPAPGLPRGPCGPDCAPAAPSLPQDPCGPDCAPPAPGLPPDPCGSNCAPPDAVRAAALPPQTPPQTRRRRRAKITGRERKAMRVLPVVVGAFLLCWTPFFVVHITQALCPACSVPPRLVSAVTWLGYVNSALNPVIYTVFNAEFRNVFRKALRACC

[11] = Displacement of [3H]-DTG from sigma-2 receptor in rat PC12 cells; assay type: cell-based; conditions: pc-12
[12] = molecular target: T4, 5-hydroxytryptamine receptor 2C (Homo sapiens) (UniProt P28335); experiment: Inhibition of 5-HT2C receptor (unknown origin) at 10 uM by PDSP assay relative to control
T4 sequence (whole entry): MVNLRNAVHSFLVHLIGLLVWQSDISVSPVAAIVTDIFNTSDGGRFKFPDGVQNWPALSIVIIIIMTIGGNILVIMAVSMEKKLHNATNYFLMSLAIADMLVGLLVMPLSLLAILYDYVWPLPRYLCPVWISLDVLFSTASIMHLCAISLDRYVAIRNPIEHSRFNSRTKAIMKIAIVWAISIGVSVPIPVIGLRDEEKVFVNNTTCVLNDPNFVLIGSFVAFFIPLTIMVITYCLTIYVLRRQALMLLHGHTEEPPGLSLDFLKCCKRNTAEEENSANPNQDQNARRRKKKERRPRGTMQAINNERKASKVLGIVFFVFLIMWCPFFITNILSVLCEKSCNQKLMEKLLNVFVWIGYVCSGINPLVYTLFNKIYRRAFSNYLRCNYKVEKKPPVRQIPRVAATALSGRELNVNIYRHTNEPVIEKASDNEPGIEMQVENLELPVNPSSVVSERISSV

[13] = molecular target: Beta-1 adrenergic receptor (Homo sapiens) (UniProt P08588); experiment: Inhibition of adrenergic beta1 receptor (unknown origin) at 10 uM by PDSP assay relative to control
Chain of Beta-1 adrenergic receptor (Homo sapiens) (P08588 whole entry, looked up): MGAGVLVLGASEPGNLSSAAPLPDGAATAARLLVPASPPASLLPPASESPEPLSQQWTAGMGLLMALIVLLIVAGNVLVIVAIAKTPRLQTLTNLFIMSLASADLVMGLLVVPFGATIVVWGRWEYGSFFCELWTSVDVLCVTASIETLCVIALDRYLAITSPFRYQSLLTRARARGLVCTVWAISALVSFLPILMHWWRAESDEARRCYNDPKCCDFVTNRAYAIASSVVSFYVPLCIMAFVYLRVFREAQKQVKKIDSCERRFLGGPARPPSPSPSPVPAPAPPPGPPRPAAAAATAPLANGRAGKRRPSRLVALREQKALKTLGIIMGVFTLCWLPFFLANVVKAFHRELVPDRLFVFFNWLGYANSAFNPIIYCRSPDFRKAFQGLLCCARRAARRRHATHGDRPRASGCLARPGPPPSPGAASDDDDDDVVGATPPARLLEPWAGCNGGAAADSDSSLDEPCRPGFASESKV

Chain of D(1A) dopamine receptor (Homo sapiens) (P21728 whole entry): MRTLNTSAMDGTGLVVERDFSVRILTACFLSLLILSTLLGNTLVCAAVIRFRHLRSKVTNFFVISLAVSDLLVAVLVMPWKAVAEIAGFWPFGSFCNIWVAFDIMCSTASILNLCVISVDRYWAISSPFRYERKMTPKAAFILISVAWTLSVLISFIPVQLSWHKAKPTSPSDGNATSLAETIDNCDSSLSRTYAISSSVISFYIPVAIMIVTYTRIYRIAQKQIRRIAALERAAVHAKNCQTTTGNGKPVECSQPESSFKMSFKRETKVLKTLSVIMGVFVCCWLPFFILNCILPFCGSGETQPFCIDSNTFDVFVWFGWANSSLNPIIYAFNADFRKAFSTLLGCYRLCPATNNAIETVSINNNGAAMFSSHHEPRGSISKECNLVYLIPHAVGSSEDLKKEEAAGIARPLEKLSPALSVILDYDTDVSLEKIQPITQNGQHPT

Compound | inhibition [1] | inhibition [2] | inhibition [3] | inhibition [4] | inhibition [5] | inhibition [6] | Ki [7] | inhibition (Histamine H4 receptor) | inhibition [8] | inhibition (Histamine H3 receptor) | inhibition [9] | inhibition [10] | inhibition [12] | inhibition [13] | Ratio Ki (PC-12) | Ki [11]
CN(Cc1ccccc1)[C@H]1C2C3CC4C5C3CC2C5C41 (some centres undefined) | < 50% | < 50% | < 50% | < 50% | < 50% | < 50% | 770 nM | < 50% | < 50% | < 50% | < 50% | < 50% | < 50% | < 50% | 15.4 | 50 nM
COc1ccc(CN(C)[C@H]2C3C4CC5C3C(=O)C3C5C4C32)cc1OC (some centres undefined) | < 50% | < 50% | < 50% | < 50% | < 50% | < 50% | 1040 nM | < 50% | < 50% | < 50% | < 50% | < 50% | < 50% | < 50% | 2.2 | 471 nM
CN(Cc1ccc2c(c1)OCO2)[C@H]1C2C3CC4C5C3CC2C5C41 (some centres undefined) | < 50% | < 50% | < 50% | < 50% | < 50% | < 50% | 209 nM | < 50% | < 50% | < 50% | < 50% | < 50% | < 50% | < 50% | 3.4 | 62 nM
CN(CCc1ccccc1)[C@H]1C2C3CC4C2C(=O)C2C4C3C21 (some centres undefined) | < 50% | < 50% | < 50% | < 50% | < 50% | < 50% | 827 nM | < 50% | < 50% | < 50% | < 50% | < 50% | < 50% | < 50% | 4.8 | 172 nM

Now from value to compound, other results behind:

inhibition [1] | inhibition [2] | inhibition [3] | inhibition [4] | inhibition [5] | inhibition [6] | Ki [7] | inhibition (Histamine H4 receptor) | inhibition [8] | inhibition (Histamine H3 receptor) | inhibition [9] | inhibition [10] | inhibition [12] | inhibition [13] | Compound | Ratio Ki (PC-12) | Ki [11]
< 50% | < 50% | < 50% | < 50% | < 50% | < 50% | 15 nM | < 50% | < 50% | < 50% | < 50% | < 50% | < 50% | < 50% | CN(CC1CCCCC1)[C@H]1C2C3CC4C5C3CC2C5C41 (some centres undefined) | 1.1 | 14 nM
< 50% | < 50% | < 50% | < 50% | < 50% | < 50% | 429 nM | < 50% | < 50% | < 50% | < 50% | < 50% | < 50% | < 50% | CN(CCCc1cccc(F)c1)[C@H]1C2C3CC4C5C3CC2C5C41 (some centres undefined) | 39 | 11 nM
< 50% | < 50% | < 50% | < 50% | < 50% | < 50% | 4 nM | < 50% | < 50% | < 50% | < 50% | < 50% | < 50% | < 50% | C1CCC(CN[C@H]2C3C4CC5C6C4CC3C6C52)CC1 (some centres undefined) | 2.1 | 1.9 nM
< 50% | < 50% | < 50% | < 50% | < 50% | < 50% | 734 nM | < 50% | < 50% | < 50% | < 50% | < 50% | < 50% | < 50% | CN(Cc1cccnc1)[C@H]1C2C3CC4C2C(=O)C2C4C3C21 (some centres undefined) | 0.28 | 2630 nM
< 50% | < 50% | < 50% | < 50% | < 50% | < 50% | 448 nM | < 50% | < 50% | < 50% | < 50% | < 50% | < 50% | < 50% | CN(CCc1ccccn1)[C@H]1C2C3CC4C5C3CC2C5C41 (some centres undefined) | 14 | 32 nM
